Test results taken from ChEMBL document CHEMBL3045468, “I2 catalyzed FriedelCrafts alkylation reaction of substituted anilines with ninhydrin: formation of novel products and their antimicrobial evaluation” (2013).
Converted amounts (≈) assume the structure as drawn.

What was measured:
Assay type in all cases: functional
Bacillus pumilus = assay: Antibacterial activity against Bacillus pumilus 11778 clinical isolate assessed as growth inhibition after 24 hr by agar dilution method; conditions: Bacillus pumilus, 11778, 24 h
Shigella dysenteriae = assay: Antibacterial activity against Shigella dysenteriae 15 clinical isolate assessed as growth inhibition after 24 hr by agar dilution method; conditions: Shigella dysenteriae, 15, 24 h
Staphylococcus aureus = assay: Antibacterial activity against Staphylococcus aureus 29737 clinical isolate assessed as growth inhibition after 24 hr by agar dilution method; conditions: Staphylococcus aureus, 29737, 24 h

With `CC1(C)S[C@@H]2[C@H](NC(=O)[C@H](N)c3ccc(O)cc3)C(=O)N2[C@H]1C(=O)O` [AMOXICILLIN] the MIC (Bacillus pumilus) was 500 µg/mL (≈ 1370 µM), the MIC (Shigella dysenteriae) was 10000 µg/mL (≈ 27400 µM) and the MIC (Staphylococcus aureus) was 500 µg/mL (≈ 1370 µM).
